The subject of test [1] is BJ-5ta cells. Kind of test: Cytoskeletal inhibitor effects on TGT rupture and spreading. The test is classed as cell-based, human. The following applies: for TGT rupture with inhibitor (in words), all substrates / cell spreading with inhibitor (in words): 1 h; for TGT rupture with inhibitor (in words), all substrates: inhibitors 5 min preincubation; for cell spreading with inhibitor (in words): RGD- and LDVP-TGT. The source says: (21 pictures or pasted objects on this page, not shown here)

Test [2] deals with BJ-5ta cells. Put plainly: BJ-5ta spreading on ACRGD-TGT with or without integrin blocking Fabs (area, aspect ratio). It is filed as cell-based, human. The protocol:
Fig. 9 Integrin α5β1 mediated cell spreading. a Affinity of ACRGD for integrins on intact cells. Titration curves are shown in Supplementary Fig. 13. b–d Behavior of BJ-5ta on ACRGD-54pN (BHQ2-Cy3) surfaces after 1 h in presence of integrin blocking Fabs described in Fig. 6 legend. b Close-contact enclosed area from RICM images (n = 43, 38, 47, 96, 50 cells). c Aspect ratio of contact area (n = 56, 49, 38 cells, >500 μm^2). d Ruptured TGT counts (n = 44, 40, 48, 96 cells). e–g Cell spreading on ACRGD-TGT of different Ttol in presence of integrin blocking Fabs. e Representative images of cells with RICM (top row) and same cells with DIC or Cy3 fluorescence to show TGT rupture (bottom row). Dim RICM rings (~20 μm diameter) with 12, 23 and 33 pN TGT are the shadows of the spherical cell body, not the close contacts. […]
The cells were gently harvested by washing in PBS for 1 min, incubating with 0.05% trypsin for 3 min, and then neutralizing with cell culture medium (FBS 10%). […] A Nikon Eclipse Ti microscope equipped with Xenon arc lamp, Nikon perfect focus system, custom total internal reflection fluorescence microscopy (TIRFM) module, and custom reflection interference contrast microscopy (RICM) module was driven by Elements software. […] Images were recorded using an electron-multiplying charge-coupled device (EMCCD; Andor iXon 888).

The test system of test [3] is BJ-5ta cells. Put plainly: Percentage of spread cells / cell spreading on TGT surfaces. To be noted: for tension threshold for cell spreading: nominal Ttol. It is filed as cell-based, human. The protocol: Glass coverslips were densely PEGylated to minimize non-specific interactions such as the binding of cell-secreted extracellular matrix proteins. Coverslips cleaned by piranha etching solution (a 3:1 mixture of sulfuric acid and hydrogen peroxide) were incubated in silanization solution (UCT, 1760-24-3; 2% aminosilane and 5% acetic acid in methanol) for 30 min and reacted with a mixture of Polyethylene glycol (PEG) with and without biotin (1:19, 150 mg/ml; Laysan Bio, Biotin-PEG-SVA-5000 and MPEG-SVA-5000) for 4 h. Surfaces were washed thoroughly and dried using nitrogen gas after each step. A 3D-printed dish (PLA) or a silicon gasket (Grace Bio Labs, 103280) was attached to the coverslip to form a dish. Neutravidin (Thermo Fisher scientific, 31000; 0.4 mg/ml) was added to the dish for 10 min and washed out thoroughly. The dish was emptied and a droplet (3 µL) of TGT solution (100 nM unless specified otherwise) was placed on the coverslip for 10 min in a humid condition to locally immobilize TGT. For the lateral drift correction for time-resolved TGT rupture analysis, biotin-coated gold nanoparticles (Luna Nanotech, GNP-BIOT-100-2-04; 100 nm) were sparsely immobilized as fiducial markers. For protein ligand coating, protein (50 ug/ml in PBS) was incubated in glass bottomed imaging dishes for 1 h at RT without additional passivation.
The cells were gently harvested by washing in PBS for 1 min, incubating with 0.05% trypsin for 3 min, and then neutralizing with cell culture medium (FBS 10%). The cells were spun down and resuspended with Leibovitz’s L-15 Medium (Gibco, 21083027) supplemented with 2 g/L glucose, then seeded on the TGT surface at an approximate density of 30 cells/mm^2. For integrin inhibition experiments, cells were incubated with Fab for 5 min before seeding. For cell immobilization experiments, cells were incubated with 1 nM Cholesterol-PEG-Biotin (Nanosoft Polymers, 3084-2000) for 5 min, followed by washes by centrifugation to remove biotin in solution before seeding. The imaging area was humidified and the temperature was maintained at 37 °C. A Nikon Eclipse Ti microscope equipped with Xenon arc lamp, Nikon perfect focus system, custom total internal reflection fluorescence microscopy (TIRFM) module, and custom reflection interference contrast microscopy (RICM) module was driven by Elements software. Dark regions in RICM show where cells have closely adhered to the surface (≪300 nm gap). Nikon 10X objective (CFI60 Plan Fluor) and 60X objective (CFI60 Apochromat TIRF) with DIC filter sets were used. […] Images were recorded using an electron-multiplying charge-coupled device (EMCCD; Andor iXon 888).
Single-cell data were obtained from multiple independent sample preparations for each condition as specified. Percentage of spread cells was obtained from three independent experiments. Statistical analyses were performed using MATLAB software. Two-sided (two sample) t-test was used for two group comparisons. Each group was compared with the control group unless specified otherwise. Representative micrographs are selected from at least two independent experiments.

Test [4] deals with BJ-5ta cells. Put plainly: Traction force microscopy on ligand-coated polyacrylamide gels. The test is classed as cell-based, human. The protocol:
Polyacrylamide gels (0.69 and 4.07 kPa shear modulus, 40 μm thickness) were prepared on glass coverslips with embedded 40 nm fluorescent beads (Thermo Scientific, TransFluoSpheres 633/720) and the surfaces were coated with neutravidin as described. […] Cells were seeded on the gels for 1 h. The bead images were taken before and after cell removal with the addition of 0.1% SDS. Bead displacements were determined using particle image velocimetry, and the corresponding contractile energy was estimated with Fourier transform traction cytometry, using ImageJ plugins. The cell area was determined by manually drawing an ROI in the DIC channel. Imaging was performed on Nikon Eclipse Ti2 microscopes equipped with Perfect Focus, CSU-W1 spinning disk, and Hamamatsu Orca-flash 4.0 v3 camera. Illumination was provided by optical fiber (Oz Optics) coupled solid-state lasers: 561 nm (200 mW) for Cy3 and, 655 nm (100 mW) for fluorescent beads from Spectral Applied Research.

The next test deals with integrin α4β1 (EO state). The following applies: extended-open conformation; read-out: affinity for EO state of α4β1; cited from earlier work.
Test [5] deals with BJ-5ta cells. Kind of test: Actin retrograde flow rate (kymographs, SiR-actin). The test is classed as cell-based, human. The following applies: 64, 71 loci from 15, 13 cells. The protocol:
BJ-5ta cells were seeded on RGD-54pN or LDVP-54pN surfaces for 40 min and 20 nM SiR-actin and 10 µM verapamil (Cytoskeleton, CY-SC001) were added 20 min before imaging. Time-lapse TIRF imaging (640 nm) was done with 2–5 s interval for more than 60 frames. Kymographs were generated with ImageJ and the linear fit analysis was done with MATLAB scripts.

Test [6] relates to extended-open β1 integrin on BJ-5ta cells. Put plainly: β1 integrin activation: number and density of bound AF647-12G10 Fab on biotin-PEG-cholesterol immobilized cells. It is filed as cell-based, human.
The next test has as its target T1, integrin αVβ3 (Homo sapiens, UniProt P05106+P06756).
T1 construct: expressed in transfected cells
Kind of test: Competition with cRGDfK-TF5WS binding to αVβ3 on K562 transfectants. The text has this:
(§1) Source data are provided as a Source Data file. […]
(§2) Source data are provided as a Source Data file.
(§3) (1 picture or pasted object on this page, not shown here)

The target of a further test is T2, integrin αVβ5 (Homo sapiens, UniProt P06756+P18084).
T2 construct: expressed in transfected cells
Put plainly: Competition with cRGDfK-TF5WS binding to αVβ5 on K562 transfectants.
Source text: as §1, §2, §3

With `C=C1[C@@H](C)[C@H]2[C@H](Cc3ccccc3)NC(=O)[C@]23[C@H](OC(C)=O)/C=C/[C@@](C)(O)C(=O)[C@@H](C)C/C=C/[C@H]3[C@@H]1O` [Cytochalasin D], in the test on BJ-5ta cells [1], the “TGT rupture with inhibitor (in words), all substrates” value (shortened to “TGT rupture with inhibitor (in words)”) is “eliminated TGT rupture on all substrates” and the “cell spreading with inhibitor (in words)” value was “inhibited cell spreading”.
In the case of “cyclic-ACRGDGWCGK (disulfide) [ACRGD-TGT]”, in the test with BJ-5ta cells [2] (ACRGD-54pN (BHQ2-Cy3), 1 h), the “spreading on ACRGD-54pN with blocking Fabs (in words)” value was “spread efficiently and developed elongated, irregular shapes”. Besides, in the test on BJ-5ta cells [2] (blocking Fabs to αVβ1, αVβ3 and αVβ5 present), the “force level required for spreading through α5β1” value was over 33 pN.
As for `O=S(=O)(c1cccc2c(I)cccc12)N1CCCNCC1` [ML-7], in the test with BJ-5ta cells [1] (RGD-54pN), the “rupture of RGD-54pN with inhibitor (in words)” value is given as “significantly suppressed”. Further, the “cell spreading with inhibitor (in words)” value in the test with BJ-5ta cells [1] was “did not disrupt cell spreading”.
“MUPA-LDVPAAK [α4β1-specific peptidomimetic; 2-methylphenylureaphenylacetyl moiety linked to LDVP motif]”: the “spread cells (fraction), sheet 1c” value with BJ-5ta cells [3] (TGT 0.01 nM) stood at 0.05399; in the test on BJ-5ta cells [3] (TGT 0.1 nM), 0; in the test on BJ-5ta cells [3] (TGT 0.3 nM), 0.8785; in the test on BJ-5ta cells [3] (TGT 1 nM), 0.9623; in the test on BJ-5ta cells [3] (TGT 10 nM), 0.9712; with BJ-5ta cells [3] (TGT 100 nM), 0.9873. For the same compound, the “Spread cells on TGT, 12pN” value in the test on BJ-5ta cells [3] (Ttol 12pN, 1 h, mean, SE in own column, n = 3 independent experiments, given as fraction) was found to be 0.9277. Also, the “Spread cells on TGT, 23pN” value with BJ-5ta cells [3] (Ttol 23pN, 1 h, mean, n = 3, given as fraction) came out at 0.9461. Moreover, the “Spread cells on TGT, 33pN” value with BJ-5ta cells [3] (Ttol 33pN, 1 h, mean, n = 3, given as fraction) worked out at 0.9711. Besides, in the test on BJ-5ta cells [3] (Ttol 43pN, 1 h, mean, n = 3, given as fraction), the “Spread cells on TGT, 43pN” value came to 0.9954. Also, the “Spread cells on TGT, 54pN” value in the test with BJ-5ta cells [3] (Ttol 54pN, 1 h, mean, n = 3, given as fraction) was 0.9781. Moreover, the “traction force (in words)” value in the test on BJ-5ta cells [4] (4 kPa and 0.7 kPa gels, versus RGD) was “significantly lower”. The “lower traction force than on RGD” value in the test with BJ-5ta cells [4] (soft gel (0.7 kPa)) was ~ 10 fold. At integrin α4β1 (EO state), the Kd was 0.15 nM.
On to `O=C1NC(=S)N(c2cccc(Br)c2)C(=O)/C1=C/c1ccco1` [SMIFH2], for which, in the test with BJ-5ta cells [1], the “TGT rupture with inhibitor (in words)” value is “greatly diminished TGT rupture” and the “cell spreading with inhibitor (in words)” value is “greatly decreased spreading”.
Regarding “proTGF-β1: physiologic macromolecular ligand with RGD motif”, in the test on BJ-5ta cells [3] (1 h after seeding), the “cell morphology (in words)” value is “elongated with irregular lamellipodia”.
In the case of “cyclo [Arg-Gly-Asp-D-Phe-Lys(8-amino-3,6-dioxaoctanoic acid dimer)] (head to tail) [RGD-TGT]”, in the test on BJ-5ta cells [3] (1 h), the “tension threshold for cell spreading” value is 33–43 pN. In the test on BJ-5ta cells [5], this compound had a retrograde actin flow of 10.1 nm/s.
Take `C[C@@H](N)[C@H]1CC[C@H](C(=O)Nc2ccncc2)CC1` [Y-27632]: the “rupture of RGD-54pN with inhibitor (in words)” value with BJ-5ta cells [1] (RGD-54pN) is given as “significantly suppressed”. Moreover, in the test on BJ-5ta cells [1], the “cell spreading with inhibitor (in words)” value is “did not disrupt cell spreading”.
On to “MUPA-LDVPAAK [LDVP-TGT, tension gauge tether conjugated with MUPA-LDVPAAK]”, for which the “tension threshold for cell spreading” value with BJ-5ta cells [3] (1 h) was under 12 pN. Moreover, the “cell spreading (in words)” value in the test with BJ-5ta cells [3] (1 h after seeding) is “adhered and spread well”. The compound further gave a retrograde actin flow in the test on BJ-5ta cells [5] of 24.8 nm/s. Moreover, the “force needed for activation of β1 integrin to high affinity state” value in [6] is on record as “less than 12 pN”. In addition, the “12G10 Fab density / activated β1 density (in words)” value in [6] (versus control, 30 min) is “significantly above the control and similar at all Ttol”.
`C[C@H](N)C(=O)N[C@H]1CSSC[C@@H](C(=O)NCC(=O)O)NC(=O)[C@H](Cc2c[nH]c3ccccc23)NC(=O)CNC(=O)[C@H](CC(=O)O)NC(=O)CNC(=O)[C@H](CCCNC(=N)N)NC1=O` gave a 50% inhibitory concentration (IC50) at integrin αVβ3 of 765 ± 84 nM. Moreover, the Kd is 170 ± 20 nM at integrin αVβ3 (Kd αVβ3, L15 + 1 mM Mn2+, 1% BSA, competition with 25 nM cRGDfK-TF5WS); 530 ± 60 nM at integrin αVβ3 (Kd αVβ3, L15, 1% BSA, no Mn2+, competition with cRGDfK-TF5WS (25 nM for Fabs, 50 nM for ACRGDGWCG), Kd = EC50/(1+CL/Kd,L)); 50 ± 4 nM on integrin αVβ5 (Kd αVβ5, L15 + 1 mM Mn2+, 1% BSA, competition with 25 nM cRGDfK-TF5WS). Moreover, the concentration for a half-maximal effect (EC50) was determined as 102 ± 7 nM on integrin αVβ5 (EC50 αVβ5, L15 + 1 mM Mn2+, competition with 25 nM cRGDfK-TF5WS) and 367 ± 29 nM at integrin αVβ5 (EC50 αVβ5, L15, no Mn2+, competition with 50 nM cRGDfK-TF5WS).
With `Cc1[nH]c2ccccc2c1CCNC(=O)c1ccccc1F` [CK666], the “TGT rupture with inhibitor (in words)” value with BJ-5ta cells [1] was “no significant effect”.
For the compound `Cc1ccc2c(c1)C(=O)[C@]1(O)CCN(c3ccc(N)cc3)C1=N2` [para-amino-blebbistatin], the “rupture of LDVP-12pN with inhibitor (in words)” value in the test on BJ-5ta cells [1] (LDVP-12pN, 50 uM, listed as para-amino-Blebbistatin) was “no role”. Also, the “share of rupture requiring myosin II (para-amino-Blebbistatin)” value in the test with BJ-5ta cells [1] (LDVP-33pN) is on record as “about one third”. Moreover, in the test with BJ-5ta cells [1] (LDVP-33pN, 50 uM), the “rupture of LDVP-33pN with inhibitor (in words)” value is listed as “significantly reduced rupture events”. Also, in the test with BJ-5ta cells [1] (RGD-54pN), the “rupture of RGD-54pN with inhibitor (in words)” value is listed as “significantly suppressed” and the “share of rupture requiring myosin II (para-amino-Blebbistatin)” value is reported as “half”. Also, in the test on BJ-5ta cells [1], the “cell spreading with inhibitor (in words)” value is on record as “did not disrupt cell spreading”.

Values taken from article PMC9719539, “Single-molecule characterization of subtype-specific β1 integrin mechanics” (Nature Communications, 2022).
